Data taken from US6653486B2, “Spiroorthocarbonates containing epoxy groups” (Curators of the University of Missouri, priority 1999, dated 2003).

Key:
[1] = Vinyl ether homopolymerization PDSC with and without EDMAB (Table 2)
From the text: For the experiments reported in Table 2, the photopolymerization of various vinyl ethers with and without the use of an electron donor to promote the reaction are reported. Data showing runs where EDMAB was used to promote the reaction are shown in parentheses after the numbers corresponding to runs without EDMAB.

melting point | Molecule | Rate Constant k ([1]; with EDMAB) | Rate Constant k ([1]; without EDMAB)
 | C=COCCOCCOC=C [DEGDVE, di(ethylene glycol)divinyl ether] | 1.4 min⁻¹ | 1.3 min⁻¹
 | C=COCCOCCOCCOC=C [TEGDVE, tri(ethylene glycol)divinyl ether] | 11.1 min⁻¹ | 2.1 min⁻¹
 | hexanediol divinyl ether [HDDVE] | 15.5 min⁻¹ | 1.4 min⁻¹
 | C=COCC1CCC(COC=C)CC1 (stereo not shown) [CHDMDVE, 1,4-cyclohexanedimethanol divinyl ether] | 2.8 min⁻¹ | 0.5 min⁻¹
 | C=COCCOC=C [EGDVE, ethylene glycol divinyl ether] | 10.6 min⁻¹ | 3.6 min⁻¹
68.1 °C | CCC(=O)OCC1(CC)COC2(OC1)OCC(CC)(COC(=O)CC)CO2 (stereo not shown) [DEDPM, 3,9-Diethyl-3,9-dipropionyloxymethyl-1,5,7,11-tetraoxaspiro[5.5]undecane] |  | 
 | C=COCC1CO1 (stereo not shown) [GVE, glycidyl vinyl ether] | 0.8 min⁻¹ | 1.1 min⁻¹
122.4 °C | FC(F)(F)C1CCOC2(OCCC(C(F)(F)F)O2)O1 (stereo not shown) [DTFM, 2,8-Ditrifluoromethyl-1,5,7,11-tetraoxaspiro[5.5]undecane] |  | 
 | C=COCCCCO [BDVE, butanediol vinyl ether] | 3.6 min⁻¹ | 1.1 min⁻¹
